The target of assay [1] is T1, Apoptosis regulator Bcl-2 (Homo sapiens, UniProt P10415). Nature of the assay: Inhibition of GST fused Bcl-2 binding to biotinylated 16 mer Bak-BH3 peptide by HTRF-LANCE assay. (In general: In TR-FRET formats the signal depends on donor and acceptor labels being close together.)
In assay [2] the target is T1, Apoptosis regulator Bcl-2. Nature of the assay: Inhibition of GST fused Bcl-2 binding to biotinylated 26 mer Bak-BH3 peptide by HTRF-LANCE assay.
Assay [3] concerns the target Bcl-2-like protein 1 (Bcl-xL) (Homo sapiens) (UniProt Q07817). Nature of the assay: Inhibition of GST fused Bcl-xL binding to biotinylated 26 mer Bak-BH3 peptide at 30 uM by HTRF-LANCE assay.
Assay [4] has the same target. Put plainly: Inhibition of GST fused Bcl-xL binding to biotinylated 16 mer Bak-BH3 peptide at 33 uM by HTRF-LANCE assay.
Assay [5] has as its target T1, Apoptosis regulator Bcl-2. Put plainly: Inhibition of GST fused Bcl-2 binding to biotinylated 26 mer Bak-BH3 peptide at 10 uM by HTRF-LANCE assay.
In assay [6] the target is Bcl-2-like protein 1 (Bcl-xL) (Homo sapiens) (UniProt Q07817). Put plainly: Inhibition of GST fused Bcl-xL binding to biotinylated 16 mer Bak-BH3 peptide at 30 uM by HTRF-LANCE assay.
Chain of Bcl-2-like protein 1 (Bcl-xL) (Homo sapiens) (Q07817 whole entry, looked up, the tested form may be a part): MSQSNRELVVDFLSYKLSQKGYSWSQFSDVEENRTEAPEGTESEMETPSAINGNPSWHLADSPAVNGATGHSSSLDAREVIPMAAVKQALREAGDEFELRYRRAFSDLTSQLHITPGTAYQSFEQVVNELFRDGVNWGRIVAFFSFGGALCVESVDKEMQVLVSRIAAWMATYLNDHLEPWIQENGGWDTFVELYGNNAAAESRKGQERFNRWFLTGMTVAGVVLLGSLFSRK
The target is the same in assay [7]. Put plainly: Inhibition of GST fused Bcl-xL binding to biotinylated 26 mer Bak-BH3 peptide at 10 uM by HTRF-LANCE assay.
Assay [8] concerns the target T1, Apoptosis regulator Bcl-2. To be noted: 30 uM.
Description: Inhibition of GST fused Bcl-2 binding to biotinylated 16 mer Bak-BH3 peptide at 30 uM by HTRF-LANCE assay

The source made the active and inactive calls. No cut-off for these calls is given here.

Data on 30 molecules can be found in ChEMBL document CHEMBL1139292, “Tetrahydroisoquinoline amide substituted phenyl pyrazoles as selective Bcl-2 inhibitors” (Bioorg Med Chem Lett, 2009).

T1 sequence (P10415 whole entry, the tested form may be a part): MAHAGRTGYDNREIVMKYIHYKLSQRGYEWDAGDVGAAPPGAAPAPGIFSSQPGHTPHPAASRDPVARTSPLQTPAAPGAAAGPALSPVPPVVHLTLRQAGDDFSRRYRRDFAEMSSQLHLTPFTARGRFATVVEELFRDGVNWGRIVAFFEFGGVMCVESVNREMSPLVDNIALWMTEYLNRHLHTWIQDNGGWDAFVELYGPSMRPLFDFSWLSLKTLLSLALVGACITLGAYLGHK

For orientation: IC50 means the concentration at which inhibition is half-maximal. Read a high IC50 as lower potency. In assay [1], `Cc1cc(C(=O)N(c2ccccc2)c2ccccc2)nn1-c1ccccc1C(=O)N1Cc2ccccc2C[C@H]1CO` gave an IC50 of 0.19 µM.
One may read the inhibition as the relative decrease from the control value, in per cent. The low end stands for a weak effect, the high end for a strong effect. On to `Cc1c(Cl)c(C(=O)N(c2ccccc2)c2ccccc2)nn1-c1ccccc1C(=O)N1Cc2ccccc2C[C@H]1CO`, for which the half-maximal inhibitory concentration (IC50) in assay [1] is 0.05 µM; in assay [2] it was 0.48 µM. Further, in assay [3], the inhibition turned out to be 29%.
As for `CC(=O)NC[C@@H]1Cc2ccccc2CN1C(=O)c1ccccc1-n1nc(C(=O)N(c2ccccc2)c2ccccc2)cc1C`, the half-inhibitory concentration (IC50) in assay [1] was found to be 0.73 µM.
In turn, `CCOC(=O)[C@@H]1Cc2ccccc2CN1C(=O)c1ccccc1-n1nc(C(=O)N(c2ccccc2)c2ccccc2)cc1C` had an IC50 in assay [1] of 5.61 µM.
Molecule `CCCCN(CCCC)C(=O)c1cc(C)n(-c2ccc(NC(=O)COc3ccccc3)cc2C(=O)N2CCc3ccccc3C2)n1` showed an IC50 in assay [2] of 0.51 µM.
In assay [1], `Cc1cc(C(=O)N(c2ccccc2)c2ccccc2)nn1-c1ccccc1C(=O)N1Cc2ccccc2C[C@H]1CN` came in with an IC50 of 0.11 µM.
In assay [1], `CNC[C@@H]1Cc2ccccc2CN1C(=O)c1ccccc1-n1nc(C(=O)N(c2ccccc2)c2ccccc2)cc1C` yielded a half-maximal inhibitory concentration (IC50) of 0.14 µM.
Turning to `CCCCN(CCCC)C(=O)c1cc(C)n(-c2ccc(OCC(=O)c3ccccc3)cc2C(=O)N2CCc3ccccc3C2)n1`, the results for the IC50 in assay [1] and in assay [2] were 0.02 µM and 0.33 µM, respectively.
For the molecule `Cc1cc(C(=O)N(c2ccccc2)c2ccccc2)nn1-c1ccccc1C(=O)N1Cc2ccccc2C[C@H]1C`, the IC50 in assay [1] came out at 0.11 µM.
For `Cc1cc(C(=O)N(c2ccccc2)c2ccccc2)nn1-c1ccccc1C(=O)N1Cc2ccccc2C[C@H]1CNS(C)(=O)=O`, the half-maximal inhibitory concentration (IC50) in assay [1] was found to be 1.05 µM. In assay [4], this molecule registered an inhibition of 40%.
For `Cc1cc(C(=O)N(c2ccccc2)C2CCCCC2)nn1-c1ccccc1C(=O)N1CCc2ccccc2C1`, the half-maximal inhibitory concentration (IC50) in assay [1] worked out at 1.4 µM.
As for `Cc1c(Cl)c(C(=O)N(CC(F)(F)F)CC(F)(F)F)nn1-c1ccccc1C(=O)N1Cc2ccccc2C[C@H]1CO`, the inhibition in assay [5] turned out to be 6%; in assay [6], 13%; in assay [3], 4%.
In the case of `Cc1cc(C(=O)N(C)Cc2ccccc2)nn1-c1ccccc1C(=O)N1CCc2ccccc2C1`, the result in assay [1] was inactive.
Take `CCCCN(CCCC)C(=O)c1nn(-c2ccccc2C(=O)N2Cc3ccccc3C[C@H]2CO)c(C)c1Cl`: the values for the IC50 in assay [1] and in assay [2] were 0.1 µM and 0.78 µM, respectively.
For `CCCCN(CCCC)C(=O)c1nn(-c2ccc(NC(=O)Cc3ccccc3)cc2C(=O)N2CCc3ccccc3C2)c(C)c1Cl` the same measures were 0.04 µM and 0.27 µM.
With `Cc1c(Br)c(C(=O)N(c2ccccc2)c2ccccc2)nn1-c1ccccc1C(=O)N1Cc2ccccc2C[C@H]1CO`, the figures for the half-maximal inhibitory concentration (IC50) in assay [1] and in assay [2] were 0.04 µM and 0.21 µM, respectively. This molecule returned an inhibition in assay [3] of 9%.
Molecule `CCCCN(CCCC)C(=O)c1cc(C)n(-c2ccc(NC(=O)CSc3ccccc3)cc2C(=O)N2CCc3ccccc3C2)n1` showed an IC50 in assay [2] of 0.6 µM.
Regarding `CCCCN(CCCC)C(=O)c1nn(-c2ccccc2C(=O)N2Cc3ccccc3C[C@H]2CN)c(C)c1Cl`, the values for the IC50 in assay [1] and in assay [2] were 0.02 µM and 0.16 µM, respectively.
As for `Cc1cc(C(=O)N(c2ccccc2)c2ccccc2)nn1-c1ccccc1C(=O)N1Cc2ccccc2C[C@H]1CN(C)C`, the half-inhibitory concentration (IC50) in assay [1] was 0.15 µM.
`CCCCN(CCCC)C(=O)c1nn(-c2ccc(N)cc2C(=O)N2Cc3ccccc3C[C@H]2CN)c(C)c1Cl`: the IC50 in assay [2] stood at 0.38 µM.
Take `COC[C@@H]1Cc2ccccc2CN1C(=O)c1ccccc1-n1nc(C(=O)N(c2ccccc2)c2ccccc2)cc1C`: the IC50 in assay [1] is 0.16 µM.
As to `CCCCN(CCCC)C(=O)c1cc(C)n(-c2ccc(OCC(=O)O)cc2C(=O)N2CCc3ccccc3C2)n1`, the concentration for half-maximal inhibition (IC50) in assay [1] was determined as 0.01 µM; in assay [2] it was 0.13 µM.
`COC(=O)C[C@@H]1Cc2ccccc2CN1C(=O)c1ccccc1-n1nc(C(=O)N(c2ccccc2)c2ccccc2)cc1C` gave an IC50 in assay [1] of 0.28 µM.
With `CCN(CC)C(=O)c1nn(-c2ccccc2C(=O)N2Cc3ccccc3C[C@H]2CO)c(C)c1Br`, the figures for the IC50 in assay [1] and in assay [2] were 3.67 µM and 17.3 µM, respectively. In assay [7], this molecule registered an inhibition of 14%.
`Cc1cc(C(=O)Nc2ccccc2)nn1-c1ccccc1C(=O)N1CCc2ccccc2C1` came in with a 50% inhibitory concentration (IC50) in assay [1] of 50 µM.
For the molecule `CCCCN(CCCC)C(=O)c1nn(-c2ccc(NC(=O)COc3ccccc3)cc2C(=O)N2CCc3ccccc3C2)c(C)c1Cl`, the IC50 was 0.04 µM in assay [1] and 0.13 µM in assay [2].
In assay [7], `CCCCN(CCCC)C(=O)c1nn(-c2ccc(NS(=O)(=O)Cc3ccccc3)cc2C(=O)N2CCc3ccccc3C2)c(C)c1Cl` registered an inhibition of 19%.
For `Cc1c(Cl)c(C(=O)N(c2ccccc2)c2ccccc2)nn1-c1ccccc1C(=O)N1Cc2ccccc2C[C@H]1CN`, the concentration for half-maximal inhibition (IC50) in assay [1] worked out at 0.03 µM; in assay [2], 0.1 µM. The same molecule came in with an inhibition in assay [3] of 28%.
With `Cc1cc(C(=O)N2CCc3ccccc3C2)nn1-c1ccccc1C(=O)N1CCc2ccccc2C1`, in assay [1], the IC50 worked out at 1.5 µM.
Consider `Cc1cc(C(=O)N(c2ccccc2)c2ccccc2)nn1-c1ccccc1C(=O)N1Cc2ccccc2C[C@@H]1C`, for which the figures for the inhibition in assay [8] and in assay [6] were 27% and 4%, respectively.
